# Results: article PMC5486949 (SLAS discovery, 2017)
# Where a name gives a salt, the structure may show the parent alone. Read-outs that look alike come from different tables or passages of the source.
# Experiments:
# PGC-1α/ERRα [1] = assay: PGC/ERR luciferase reporter gene assay, agonist mode; type: cell-based, human; conditions: for EC50 / AC50: Homo sapiens; for EC50: read-out: PGC-1α/ERRα (Agonist) EC50; for AC50: read-out: AC50 PGC-ERR ↑
# ERRα [2] = assay: ERR luciferase reporter gene assay, agonist mode; type: cell-based, human; conditions: for AC50: read-out: AC50 ERR ↑
# PGC-1α/ERRα [3] = assay: PGC/ERR luciferase reporter gene assay, antagonist mode; type: cell-based, human; conditions: for IC50: read-out: PGC-1α/ERRα (Antagonist) IC50; for AC50: read-out: AC50 PGC/ERR ↓
# ERRα [4] = assay: ERR luciferase reporter gene assay, antagonist mode; type: cell-based, human; conditions: for IC50: read-out: ERRα (Antagonist) IC50; for AC50: read-out: AC50 ERR↓
# ERR cell line (HEK293T) = assay: Cell viability assay multiplexed with ERR antagonist mode assay; type: cell-based, human; conditions: Homo sapiens, HEK-293T, read-out: ERRα (Viability) IC50
# [5] = test system: ERR and PGC/ERR cell lines; assay: Cell viability; conditions: agonist mode, ERR and PGC/ERR lines (Fig. 3A,B)
# [6] = read-out: ERRα (Agonist) EC50, LOPAC qHTS, dash = inconclusive or no activity
# [7] = Homo sapiens, read-out: ERRα (Agonist) EC50
# [8] = antagonist mode, 0 = inactive or inconclusive
# [9] = agonist mode, 0 = inactive or inconclusive
compound,measurement,setting,value
Nc1nc(Nc2ccccc2)nc2c1ncn2[C@@H]1O[C@H](CO)[C@@H](O)[C@H]1O [2-Phenylaminoadenosine],EC50,PGC-1α/ERRα [1],1.68 µM
"Fc1cccc(C=NN=Cc2cccc(F)c2)c1 [3,3 ′-Difluorobenzaldazine]",EC50,ERRα [2]; [6],13.3 µM
Nc1nccc2c1ncn2[C@@H]1O[C@H](CO)[C@@H](O)[C@H]1O [3-Deazaadenosine],IC50,PGC-1α/ERRα [3]; Homo sapiens,16.8 µM
"Brc1c(Br)c(Br)c2[nH]cnc2c1Br [4,5,6,7-Tetrabromobenz-imidazole]",IC50,ERRα [4]; Homo sapiens,16.8 µM
"Brc1c(Br)c(Br)c2[nH]nnc2c1Br [4,5,6,7-Tetrabromobenzo-triazole]",AC50,ERRα [4]; Homo sapiens,20.9 µM
same,IC50,ERRα [4]; Homo sapiens,18.8 µM
same,AC50,PGC-1α/ERRα [3]; Homo sapiens,20.9 µM
same,IC50,PGC-1α/ERRα [3]; Homo sapiens,21.1 µM
Nc1ccc(N=Nc2ccccc2)cc1 [4-Aminoazobenzene],EC50,ERRα [2]; [7],10.9 µM
Cc1cccc(C#Cc2ccccc2)n1 [6-Methyl-2-(phenylethynyl)pyridine HCl],EC50,ERRα [2]; [7],13.3 µM
CC1=C(C)C(=O)C(CCCCC#CCCCC#CCO)=C(C)C1=O [AA-861],IC50,ERRα [4]; Homo sapiens,12.6 µM
O=C1NC(=O)/C(=C/c2ccc3c(c2)OC(F)(F)O3)S1 [AS 604850],EC50,ERRα [2]; [6],3.16 µM
CCCCC[C@H](CC(=O)NO)C(=O)N[C@H](C(=O)N1CCC[C@H]1CO)C(C)C [Actinonin],IC50,PGC-1α/ERRα [3]; Homo sapiens,8.91 µM
Nc1nc(N)c2nc(CNc3ccc(C(=O)N[C@@H](CCC(=O)O)C(=O)O)cc3)cnc2n1 [Aminopterin],AC50,ERRα [4]; Homo sapiens,0.0468 µM
same,IC50,ERRα [4]; Homo sapiens,0.05 µM
same,AC50,PGC-1α/ERRα [3]; Homo sapiens,0.0589 µM
same,IC50,PGC-1α/ERRα [3]; Homo sapiens,0.06 µM
COc1cc(NS(C)(=O)=O)ccc1Nc1c2ccccc2nc2ccccc12 [Amsacrine hydrochloride],IC50,ERR cell line (HEK293T),23.7 µM
CO[C@H]1O[C@@H]2O[C@@]3(C)CC[C@H]4[C@H](C)CC[C@@H]([C@H]1C)[C@@]24OO3 [Artemether],AC50,ERRα [4]; Homo sapiens,0.525 µM
same,IC50,ERRα [4]; Homo sapiens,0.53 µM
same,AC50,PGC-1α/ERRα [3]; Homo sapiens,1.05 µM
same,IC50,PGC-1α/ERRα [3]; Homo sapiens,0.75 µM
COc1ccc(-c2cc3nccn3c(Nc3ncccc3C(N)=O)n2)cc1OC.Cl.O [BAY 61-3606 hydrochloride hydrate],AC50 ERR↓,ERRα [4]; [8],5.53 log10(M)*–1
same,AC50 PGC/ERR ↓,PGC-1α/ERRα [3]; [8],5.63 log10(M)*–1
Nc1ccc(-c2ccc3ccccc3n2)cc1 [BF-170 hydrochloride],AC50 PGC-ERR ↑,PGC-1α/ERRα [1]; [9],5.78 log10(M)*–1
same,AC50 ERR ↑,ERRα [2]; [9],5.58 log10(M)*–1
same,EC50,ERRα [2]; [6],2.66 µM
Cc1ccc(S(=O)(=O)/C=C/C#N)cc1 [Bay 11-7082],EC50,ERRα [2]; [6],16.8 µM
C[C@H]1CCC/C=C/[C@@H]2C[C@H](O)C[C@H]2[C@H](O)/C=C/C(=O)O1 [Brefeldin A],IC50,ERRα [4]; Homo sapiens,1.5 µM
O=C(/C=C/c1ccc(O)c(O)c1)OCCc1ccccc1 [Caffeic acid phenethyl ester],EC50,PGC-1α/ERRα [1],11.9 µM
O=c1c(-c2ccc(O)cc2)coc2cc(O)ccc12 [Daidzein],AC50,PGC-1α/ERRα [1],20.9 µM
same,AC50,ERRα [2]; Homo sapiens,13.2 µM
same,EC50,ERRα [2]; [7],13.3 µM
C#C[C@]1(O)CC[C@H]2[C@@H]3CCC4=Cc5oncc5C[C@]4(C)[C@H]3CC[C@@]21C [Danazol],IC50,ERRα [4]; Homo sapiens,15 µM
OCCN(CCO)c1nc(N2CCCCC2)c2nc(N(CCO)CCO)nc(N3CCCCC3)c2n1 [Dipyridamole],IC50,ERRα [4]; Homo sapiens,11.9 µM
O=c1cc(-c2ccccc2)oc2ccccc12 [Flavone],EC50,ERRα [2]; [7],9.69 µM
C=C[C@@]1(C)CC(=O)[C@]2(O)[C@@]3(C)[C@@H](O)CCC(C)(C)[C@@H]3[C@H](O)[C@H](OC(C)=O)[C@@]2(C)O1 [Forskolin],EC50,PGC-1α/ERRα [1],1.33 µM
O=c1c(-c2ccc(O)cc2)coc2cc(O)cc(O)c12 [Genistein],cytotoxicity at concentrations of outfitted points of agonist curves,[5],cytotoxicity did not appear to be the direct cause for the outfitted points
same,AC50,PGC-1α/ERRα [1],3.31 µM
same,EC50,"ERRα [2]; Homo sapiens, 18 h, read-out: EC50, ERRα induction, assay optimization, 2000 cells/well, 18 h",3.33 µM
same,EC50,"ERRα [2]; Homo sapiens, 18 h, read-out: EC50, ERRα induction, assay optimization, 3000 cells/well, 18 h",3.23 µM
same,AC50,ERRα [2]; Homo sapiens,2.95 µM
NNc1nncc2ccccc12 [Hydralazine hydrochloride],EC50,ERRα [2]; [7],0.75 µM
COc1ccc(/C=C2\COc3ccc(C)cc3C2=O)cc1O [IMS2186],EC50,ERRα [2]; [6],1.06 µM
O=C1Nc2ccccc2/C1=C1/Nc2ccccc2/C1=N\O [Indirubin-3′-oxime],EC50,ERRα [2]; [6],2.66 µM
O=C1Cc2c([nH]c3ccc(Br)cc23)-c2ccccc2N1 [Kenpaullone],cytotoxicity at concentrations of outfitted points of agonist curves,[5],cytotoxicity did not appear to be the direct cause for the outfitted points
same,AC50,PGC-1α/ERRα [1],1.32 µM
same,EC50,PGC-1α/ERRα [1],1.33 µM
same,AC50,ERRα [2]; Homo sapiens,2.95 µM
same,EC50,ERRα [2]; [7],2.98 µM
CC[N+](CC)(CC)CCOc1ccc(/C=C/c2ccccc2)cc1 [MG 624],AC50,ERRα [4]; Homo sapiens,10.5 µM
same,IC50,ERRα [4]; Homo sapiens,9.44 µM
same,AC50,PGC-1α/ERRα [3]; Homo sapiens,11.7 µM
same,IC50,PGC-1α/ERRα [3]; Homo sapiens,12.6 µM
CC[C@H](C)C(=O)O[C@H]1CCC=C2C=C[C@H](C)[C@H](CC[C@@H]3C[C@@H](O)CC(=O)O3)[C@H]21 [Mevastatin],EC50,ERRα [2]; [7],2.98 µM
CC#C[C@]1(O)CC[C@H]2[C@@H]3CCC4=CC(=O)CCC4=C3[C@@H](c3ccc(N(C)C)cc3)C[C@@]21C [Mifepristone],IC50,ERRα [4]; Homo sapiens,23.7 µM
Nc1ccc(CCNc2ncnc3c2ncn3[C@@H]2O[C@H](CO)[C@@H](O)[C@H]2O)cc1 [N6-2-(4-Aminophenyl)ethyladenosine],EC50,PGC-1α/ERRα [1],11.9 µM
OC[C@H]1O[C@@H](n2cnc3c(NC4CCCC4)ncnc32)[C@H](O)[C@@H]1O [N6-Cyclopentyladenosine],EC50,PGC-1α/ERRα [1],2.98 µM
COC(=O)Nc1nc2ccc(C(=O)c3cccs3)cc2[nH]1 [Nocodazole],EC50,PGC-1α/ERRα [1],1.88 µM
"COc1cccc(-c2cc(=O)c3ccccc3o2)c1N [PD 98,059]",EC50,ERRα [2]; [6],2.11 µM
Oc1cc(O)cc(/C=C/c2ccc(O)c(O)c2)c1 [Piceatannol],AC50,PGC-1α/ERRα [1],18.6 µM
same,EC50,PGC-1α/ERRα [1],18.8 µM
same,AC50,ERRα [2]; Homo sapiens,8.32 µM
same,EC50,ERRα [2]; [7],8.41 µM
CC(=O)[C@H]1CC[C@H]2[C@@H]3CCC4=CC(=O)CC[C@]4(C)[C@H]3CC[C@]12C [Progesterone],IC50,ERRα [4]; Homo sapiens,11.9 µM
Cc1cccc(-c2[nH]ncc2-c2ccc3ncccc3n2)n1 [RepSox],AC50 ERR↓,ERRα [4],5.88 log10(M)*–1
same,IC50,ERRα [4],1.33 µM
same,AC50 PGC/ERR ↓,PGC-1α/ERRα [3],5.93 log10(M)*–1
same,IC50,PGC-1α/ERRα [3],1.19 µM
Oc1ccc(/C=C/c2cc(O)cc(O)c2)cc1 [Resveratrol],AC50,PGC-1α/ERRα [1],11.7 µM
same,EC50,PGC-1α/ERRα [1],11.9 µM
same,AC50,ERRα [2]; Homo sapiens,3.31 µM
same,EC50,ERRα [2]; [7],3.35 µM
Cc1nc2sccn2c(=O)c1CCN1CCC(=C(c2ccc(F)cc2)c2ccc(F)cc2)CC1 [Ritanserin],IC50,ERRα [4]; Homo sapiens,16.8 µM
Oc1ccc(-c2nc(-c3ccncc3)c(-c3ccc(F)cc3)[nH]2)cc1 [SB 202190],IC50,ERRα [4]; Homo sapiens,10.6 µM
Cc1ccc(O)c(N=Nc2ccccc2)n1 [SIB 1757],EC50,ERRα [2]; [6],8.41 µM
Cc1cccc(/C=C/c2ccccc2)n1 [SIB 1893],EC50,ERRα [2]; [6],13.3 µM
COc1ccc(CCCOC(Cn2ccnc2)c2ccc(OC)cc2)cc1 (stereo not drawn) [SKF 96365],IC50,ERRα [4]; Homo sapiens,17.8 µM
C=CCNc1ncnc2ccc(Br)cc12 [SMER28],AC50 ERR↓,ERRα [4]; [8],5.03 log10(M)*–1
same,AC50 PGC/ERR ↓,PGC-1α/ERRα [3]; [8],4.98 log10(M)*–1
CN(C)c1ccc(C=C2C(=O)Nc3ccccc32)cc1 [SU 4312],EC50,ERRα [2]; [6],3.35 µM
CN(C)S(=O)(=O)c1ccc2c(c1)/C(=C/c1cc3c([nH]1)CCCC3)C(=O)N2 [SU 6656],EC50,PGC-1α/ERRα [1],23.7 µM
CC(=O)S[C@@H]1CC2=CC(=O)CC[C@]2(C)[C@H]2CC[C@@]3(C)[C@@H](CC[C@@]34CCC(=O)O4)[C@H]12 [Spironolactone],AC50,ERRα [4]; Homo sapiens,16.6 µM
same,IC50,ERRα [4]; Homo sapiens,18.8 µM
same,AC50,PGC-1α/ERRα [3]; Homo sapiens,9.33 µM
same,IC50,PGC-1α/ERRα [3]; Homo sapiens,9.44 µM
CCN1/C(=C/C(C)=O)Sc2ccc(OC)cc21 [TG003],AC50 ERR↓,ERRα [4]; [8],4.93 log10(M)*–1
same,AC50 PGC/ERR ↓,PGC-1α/ERRα [3]; [8],5.23 log10(M)*–1
C/C=C(/C)C(=O)O[C@H]1C(C)=C2[C@H]([C@@H]1OC(=O)CCCCCCC)[C@@](C)(OC(C)=O)C[C@H](OC(=O)CCC)[C@@]1(O)[C@H]2OC(=O)[C@@]1(C)O [Thapsigargin],IC50,ERRα [4]; Homo sapiens,0.24 µM
same,IC50,ERR cell line (HEK293T),10.6 µM
COc1ccc(/C=C/C(=O)Nc2ccccc2C(=O)O)cc1OC [Tranilast],EC50,ERRα [2]; [7],1.68 µM
COc1cc2c(cc1OC)-c1c/c(=N\c3c(C)cc(C)cc3C)n(C)c(=O)n1CC2 [Trequinsin hydrochloride],IC50,ERRα [4]; Homo sapiens,16.8 µM
CC(C)(C)c1cc(/C=C(\C#N)C(N)=S)cc(C(C)(C)C)c1O [Tyrphostin AG 879],IC50,ERRα [4]; Homo sapiens,2.37 µM
